Experimental findings from patent publication US12459915B2, “Biaryl derivative useful as diacylglycerol acyltransferase 2 inhibitor, and use thereof” (LG CHEM, LTD., priority 2020, dated 2025) are described below.

In the test the target is Recombinant human DGAT2 protein (Homo sapiens (Human), UniProt Q96PD7). Nature of the test: Measurement of inhibitory effect against DGAT2 enzyme activity (SPA, Phospholipid Flash Plate). As to conditions: DGAT2-membrane protein from Sf-21 cells, [14C] oleoyl CoA, 1,2 sn-oleoyl glycerol, 37° C.; read-out: IC50 (concentration of the compound that inhibits TG production by 50%). The format is biochemical. The protocol:
In order to prepare the pBacPAK9-DGAT2, which is DGAT2 expression vector, the human DGAT2 gene amplified by polymerase chain reaction (PCR) was cloned into the EcoR1 and Xho1 sites of the pBacPAK9 (clonctech) vector. The nucleotide sequence of the primers used in PCR was the forward primer 5′ […] and the reverse primer 5′ […]. The composition of the reaction solution was to contain 50 ng of cDNA clone (OriGene), 200 μM of dATP, dCTP, dTTP, dGTP, 200 nM of each primer, 1 unit of Tag DNA Polymerase (Toyobo), 1×PCR buffer, and the final volume was adjusted to 20 μl. […]
Recombinant human DGAT2 protein was expressed in Sf-21 cells, which are insect cells, by using the BacPack baculovirus expression system (Clontech). […] Protein concentration was quantified by using the BCA Protein Assay Kit (Thermo Scientific).
In vitro DGAT2 analysis was performed using a Phospholipid Flash Plate (PerkinElmer) based on the principle of SPA (Scintilation Proximity Assay). […] The next day, the amplified scintillation signal (cpm) in Topcounter (Packard) was measured to measure the degree of production of [14C]-labeled triacyl glycerol (TG) as a reaction product. The measured value when the compound was not treated was used as a positive control, and the measured value of the compound treated group was calculated as a relative % to measure the inhibition effect of the compound on TG production. […]

Sequence of Recombinant human DGAT2 protein (Q96PD7 whole entry): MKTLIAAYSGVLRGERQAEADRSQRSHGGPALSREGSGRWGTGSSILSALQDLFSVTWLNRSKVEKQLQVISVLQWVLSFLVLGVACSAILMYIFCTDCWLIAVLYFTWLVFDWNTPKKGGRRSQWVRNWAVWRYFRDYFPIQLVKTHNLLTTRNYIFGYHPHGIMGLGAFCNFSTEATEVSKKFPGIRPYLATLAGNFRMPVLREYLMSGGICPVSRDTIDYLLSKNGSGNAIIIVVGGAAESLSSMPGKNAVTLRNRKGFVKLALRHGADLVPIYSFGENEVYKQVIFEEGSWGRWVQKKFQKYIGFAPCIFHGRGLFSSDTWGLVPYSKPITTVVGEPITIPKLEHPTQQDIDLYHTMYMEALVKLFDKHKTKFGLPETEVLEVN

As for `CCOc1ccccc1Oc1cccc(-c2cncc(NC(=O)Cc3ccc(CC(=O)O)cc3)n2)c1` [Example 11, 2-(4-(2-((6-(3-(2-ethoxyphenoxy)phenyl)pyrazin-2-yl)amino)-2-oxoethyl)phenyl)acetic acid], the IC50 worked out at 370 nM.
